These are literature values, as cited in patent US11951100B2, “Formulations of RBP4 inhibitors and methods of use” (Belite Bio, LLC, priority 2019, dated 2024).

The conditions of the data set: sub-population with significant RBP4 lowering; cited from earlier work.

Consider `CC1=C(/C=C/C(C)=C/C=C/C(C)=C/C(=O)Nc2ccc(O)cc2)C(C)(C)CCC1` [fenretinide], for which the lesion growth result was “slower lesion growth”.
